Test results reported in patent US20090054412A1, “Treatment of Sleep Disorders” (priority 2007, published 2009).
Marks after values point to notes of the source that are not given here.

Tests used:
[1] = Example 3: randomized double-blind placebo-controlled crossover study in primary insomnia (PSG, patient reports, DSST, safety); type: in vivo, human
Protocol: A randomized, multicenter, double-blind, placebo-controlled crossover study was conducted to assess the efficacy of the 1.5 mg and 2.5 mg doses of the compound of formula (II) in the treatment of primary insomnia in adult patients. Specifically, one of the objectives of the study was to assess the efficacy of 1.5 mg and 2.5 mg doses on polysomnogram (PSG) and patient-reported measures of sleep. Also, the study was aimed at assessing the safety of 1.5 mg and 2.5 mg doses.
The study in this Example was performed for two consecutive nights with a 5-12 day washout between each period. The dosing was conducted 30 minutes before lights were turned out for the night via oral administration of a hard gelatine capsule containing the compound of formula (II) in powder form. PSG was taken for 8 hours from “lights out” on nights 1 and 2 of each treatment period. Centralized scoring of PSG was used. Testing for residual effects using the Digit Symbol Substitution Test (DSST) was performed at least 30 minutes after wake time (9 hours post dose).
[…] These subjects' typical bed time was between 9 pm and 1 am with at least 7 hours in bed. These subjects reported sleep latency of at least 45 minutes and total sleep time (TST) of not more than 6.5 hours in a sleep diary for at least 3 of 7 nights.
Mean wake time after sleep onset (WASO) of the patients was at least 40 minutes and mean TST was 240-420 minutes.

[2] = Example 1: placebo controlled cross-over study, road noise model, healthy volunteers; type: in vivo, human
Protocol: A placebo controlled, randomized, double-blind, cross-over study of the effects of the compound of formula (II) was conducted using a road noise model using 12 healthy volunteers. Specifically, the volunteers were subjected to road traffic noise to imitate the effects of insomnia, and the medication was orally administered 5 minutes before the 11 pm bed time in 1.0 mg, 1.5 mg, 2 mg and 2.5 mg doses in the form of a hard gelatine capsule containing the powdered compound of formula (II). Measurements were then taken at 8, 10 and 12 hours after dosing.

[3] = 1.5, 2.0 & 2.5 mg oral, vs placebo
[4] = all 4 doses (1.0, 1.5, 2 and 2.5 mg oral)
[5] = objective residual effects, 8, 10 and 12 hours after dosing

CN(C)Cc1nc(-c2ncn3c2CN(C)C(=O)c2c(Cl)cccc2-3)no1 [compound of formula (II), 7-chloro-3-(5-dimethylaminomethyl-[1,2,4]oxadiazol-3-yl)-5-methyl-4,5-dihydro-imidazo[1,5-a][1,4]benzodiazepine-6-one]
increase of TST compared to placebo ([1]; 1.5 mg): 33.1 min | reduction of LPS compared to placebo ([1]; 1.5 mg): 17.0 min | reduction of WASO compared to placebo ([1]; 1.5 mg): 16.7 min | reduction of total wake time in hours 5-8 ([1]; 1.5 mg): 10.8 min | Number of Patients with Any Event ([1]; 1.5 mg (n = 71)): 13 | Number of Patients with Headache ([1]; 1.5 mg (n = 71)): 3 | Number of Patients with Somnolence ([1]; 1.5 mg (n = 71)): 2 | Patients with Any Event, percent ([1]; 1.5 mg (n = 71)): 18.3% | Patients with Headache, percent ([1]; 1.5 mg (n = 71)): 4.2% | Patients with Somnolence, percent ([1]; 1.5 mg (n = 71)): 2.8% | safety and tolerability ([1]; 1.5 mg and 2.5 mg): safe and well-tolerated | WASO in the second half of the night (5-8 hours after lights out) ([1]; 1.5 mg and 2.5 mg, compared to placebo, p<0.0001): reduced WASO | patient-reported residual sedation effects ([1]; 1.5 mg or 2.5 mg compared with placebo): no patient-reported residual sedation effects | Adjusted mean LPS (min), p value ([1]; 1.5 mg vs. placebo): p < 0.0001 | Adjusted mean TST (min), p value ([1]; 1.5 mg vs. placebo): p < 0.0001 | Adjusted mean WASO (min), p value ([1]; 1.5 mg vs. placebo): p < 0.0001 | Adjusted mean total wake time, 2nd half (min), p value ([1]; 1.5 mg vs. placebo): p = 0.0008 | increase of TST compared to placebo ([1]; 2.5 mg): 45.0 min | reduction of LPS compared to placebo ([1]; 2.5 mg): 20.7 min | reduction of WASO compared to placebo ([1]; 2.5 mg): 25.7 min | reduction of total wake time in hours 5-8 ([1]; 2.5 mg): 16.2 min | Number of Patients with Any Event ([1]; 2.5 mg (n = 71)): 18 | Number of Patients with Headache ([1]; 2.5 mg (n = 71)): 6 | Number of Patients with Somnolence ([1]; 2.5 mg (n = 71)): 4 | Patients with Any Event, percent ([1]; 2.5 mg (n = 71)): 25.4% | Patients with Headache, percent ([1]; 2.5 mg (n = 71)): 8.5% | Patients with Somnolence, percent ([1]; 2.5 mg (n = 71)): 5.6% | Adjusted mean LPS (min), p value ([1]; 2.5 mg vs. placebo): p < 0.0001 | Adjusted mean TST (min), p value ([1]; 2.5 mg vs. placebo): p < 0.0001 | Adjusted mean WASO (min), p value ([1]; 2.5 mg vs. placebo): p < 0.0001 | Adjusted mean total wake time, 2nd half (min), p value ([1]; 2.5 mg vs. placebo): p < 0.0001 | total time awake during each hour after dosing ([1]; 2.5 mg, hour 7 p 0.0577): statistically significant reduction each hour, except hour 7 | REM sleep ([1]; 1.5 and 2.5 mg): only a small effect on REM sleep | patient-reported sleep quality ([1]; 1.5 and 2.5 mg): marked improvement in sleep quality | sleep architecture ([1]; 1.5 and 2.5 mg): equivalent to the natural sleep architecture | slow wave sleep ([1]; 1.5 and 2.5 mg): no impairment of slow wave sleep | Digit Symbol Substitution Test (DSST) scores ([1]; 9 hours after dose, compared with placebo): only slightly lower | Subjective assessment (LARS): Coordination ([2]; 2.5 mg): No impairment | Subjective assessment (LARS): Mood ([2]; 2.5 mg): No impairment | Subjective assessment (LARS): Sedation ([2]; 2.5 mg): No impairment | WASO 2nd half night (hrs 5-8) [2, 3]: Significantly reduced | WASO full night (hrs 0-8) [2, 3]: Significantly reduced | Sleep Efficiency Index ([2]; 2.0 & 2.5 mg oral, vs placebo): Significantly improved | Total Sleep Time ([2]; 2.0 & 2.5 mg oral, vs placebo): Significantly improved | Performance on cognitive or psychomotor tests ([2]; 8 to 12 hours after dose, data corrected for multiple comparisons): no impairment of performance | Leeds Sleep Evaluation Questionnaire: Quality of sleep ([2]; all 4 doses): Significantly improved at all | Slow Wave Sleep (% and duration) [2, 4]: Significantly increased | Stage IV Sleep (% and duration) [2, 4]: Significantly increased | Sternberg Memory Task (STM) ([2]; at 8 or 12 h): No effect | Continuous Tracking Task - reaction time ([2]; at 10 or 12 h): No effect | Continuous Tracking Task - deviation ([2]; at 8 h): No effect | Leeds Sleep Evaluation Questionnaire: Early morning behaviour (clumsiness & tiredness) ([2]; human, in vivo): No effect | Leeds Sleep Evaluation Questionnaire: Ease of awakening ([2]; human, in vivo): No effect | Choice Reaction Time - Motor Component ([2]; objective residual effects): No effect | Critical Flicker Fusion Test ([2]; objective residual effects): No effect | Word Recall - delayed (WRd) ([2]; objective residual effects): No effect | Rapid Visual Information Processing [2, 5]: No effect | Sustained Attention to Response (SART) [2, 5]: No effect | Leeds Sleep Evaluation Questionnaire: Getting to sleep ([2]; road traffic noise model considered nondiscriminant for sleep onset measures): (No effect)*
